The CheMixHub viscosity set

Assay: xn = mol fraction of the nth substance listed

COc1ccc(C=O)cc1 + Cc1cc(C)cc(C)c1
viscosity [mPa·s], 101 kPa
Conditions | x1 = 0.1142 | x1 = 0.2248 | x1 = 0.3321 | x1 = 0.4361 | x1 = 0.537 | x1 = 0.635 | x1 = 0.7302 | x1 = 0.8227 | x1 = 0.9126
303.15 K | 0.686 | 0.766 | 0.825 | 1.044 | 1.283 | 1.581 | 1.77 | 2.826 | 2.963
308.15 K | 0.645 | 0.713 | 0.7707 | 0.96 | 1.148 | 1.395 | 1.582 | 2.452 | 2.665
313.15 K | 0.438 | 0.487 | 0.547 | 0.676 | 0.825 | 1 | 1.094 | 1.859 | 1.969
318.15 K | 0.392 | 0.435 | 0.5 | 0.614 | 0.733 | 0.9 | 1 | 1.517 | 1.713

COc1ccc(C=O)cc1 + Cc1ccc(O)cc1
Conditions | viscosity [mPa·s]
308.15 K, 101 kPa, x1 = 0.8868 | 3.965

COc1ccc(C=O)cc1 + Cc1cccc(O)c1
Conditions | viscosity [mPa·s]
318.15 K, 101 kPa, x1 = 0.4656 | 4.085

CCCC[n+]1ccc(C)cc1.[Cl][Al-]([Cl])([Cl])[Cl] + Cc1ccccc1
101 kPa, x2 = 0.38
Conditions | viscosity [mPa·s]
298.15 K | 13.8
303.15 K | 12.8
308.15 K | 10.8
313.15 K | 9.4
318.15 K | 8.5
323.15 K | 7.6

CCOC(C)=O + Cc1ccccc1
viscosity [mPa·s], 101 kPa
Conditions | 298.15 K | 308.15 K
x1 = 0.045 | 0.538 | 0.49
x1 = 0.1 | 0.534 | –
x1 = 0.1501 | 0.514 | 0.472
x1 = 0.21 | 0.512 | –
x1 = 0.2483 | 0.495 | 0.457
x1 = 0.31 | 0.506 | –
x1 = 0.3517 | 0.478 | 0.443
x1 = 0.41 | 0.484 | –
x1 = 0.4469 | 0.464 | 0.431
x1 = 0.4912 | 0.459 | 0.426
x1 = 0.51 | 0.482 | –
x1 = 0.5503 | 0.452 | 0.42
x1 = 0.61 | 0.478 | –
x1 = 0.6489 | 0.443 | 0.411
x1 = 0.71 | 0.455 | –
x1 = 0.749 | 0.436 | 0.403
x1 = 0.81 | 0.445 | –
x1 = 0.8507 | 0.431 | 0.395
x1 = 0.9 | 0.428 | –
x1 = 0.9432 | 0.429 | 0.39
x2 = 0.1513 | 0.466 | –
x2 = 0.442 | 0.481 | –
x2 = 0.7034 | 0.509 | –

COc1ccc(C=O)cc1 + Cc1ccccc1
viscosity [mPa·s], 101 kPa
Conditions | x1 = 0.0899 | x1 = 0.1818 | x1 = 0.2759 | x1 = 0.3721 | x1 = 0.4706 | x1 = 0.5714 | x1 = 0.6747 | x1 = 0.7805 | x1 = 0.8889
303.15 K | 0.5703 | 0.6449 | 0.7185 | 0.9019 | 1.099 | 1.356 | 1.551 | 2.61 | 2.857
308.15 K | 0.5414 | 0.6128 | 0.6929 | 0.8502 | 1.018 | 1.258 | 1.388 | 2.218 | 2.505
313.15 K | 0.512 | 0.5751 | 0.6448 | 0.7809 | 0.9332 | 1.122 | 1.259 | 2.011 | 2.165
318.15 K | 0.4586 | 0.5216 | 0.5862 | 0.7004 | 0.8327 | 0.9898 | 1.098 | 1.65 | 1.825

COc1ccc(C=O)cc1 + Cc1ccccc1O
308.15 K, 101 kPa
Conditions | viscosity [mPa·s]
x1 = 0.7753 | 3.815
x1 = 0.8859 | 3.475

CCCCCCC(=O)O + ClC(Cl)(Cl)Cl
298.15 K, 101 kPa
Conditions | viscosity [mPa·s]
x1 = 0.06 | 0.99
x1 = 0.12 | 1.08
x1 = 0.17 | 1.175
x1 = 0.23 | 1.271
x1 = 0.44 | 1.767
x1 = 0.54 | 2.046
x1 = 0.64 | 2.362
x1 = 0.83 | 3.015

FC(F)(F)C(F)(F)Cl + FC(F)Cl
Conditions | viscosity [mPa·s]
298.15 K, 101 kPa, x2 = 0.63 | 0.16

Clc1cccc(Cl)c1 + Nc1cccc(Cl)c1
viscosity [mPa·s], 100 kPa
Conditions | x2 = 0.1079 | x2 = 0.2255 | x2 = 0.3102 | x2 = 0.4128 | x2 = 0.5135 | x2 = 0.6122 | x2 = 0.7094 | x2 = 0.8047 | x2 = 0.8908
303.15 K | 1.313 | 1.712 | 1.998 | 2.341 | 2.675 | 2.999 | 3.318 | 3.627 | 3.905
308.15 K | 1.225 | 1.581 | 1.836 | 2.142 | 2.439 | 2.729 | 3.012 | 3.286 | 3.532
313.15 K | 1.141 | 1.455 | 1.678 | 1.946 | 2.208 | 2.462 | 2.708 | 2.946 | 3.162
318.15 K | 1.055 | 1.326 | 1.519 | 1.752 | 1.975 | 2.193 | 2.405 | 2.611 | 2.795
